Assay results reported in patent US12516046B2, “2-oxo-oxazolidine-5-carboxamides as NAV1.8 inhibitors” (Merck Sharp & Dohme LLC, priority 2020, dated 2026).

target: human Nav1.8 (Homo sapiens (Human), UniProt Q9Y5Y9); experiment: Nav1.8 Qube® Assay (automated 384-well patch-clamp); format: cell-based; conditions: human Nav1.8 channels stably expressed in HEK 293 cells
Source text: Qube® Assay Experimental Procedure

human Nav1.8, sequence (Q9Y5Y9 whole entry): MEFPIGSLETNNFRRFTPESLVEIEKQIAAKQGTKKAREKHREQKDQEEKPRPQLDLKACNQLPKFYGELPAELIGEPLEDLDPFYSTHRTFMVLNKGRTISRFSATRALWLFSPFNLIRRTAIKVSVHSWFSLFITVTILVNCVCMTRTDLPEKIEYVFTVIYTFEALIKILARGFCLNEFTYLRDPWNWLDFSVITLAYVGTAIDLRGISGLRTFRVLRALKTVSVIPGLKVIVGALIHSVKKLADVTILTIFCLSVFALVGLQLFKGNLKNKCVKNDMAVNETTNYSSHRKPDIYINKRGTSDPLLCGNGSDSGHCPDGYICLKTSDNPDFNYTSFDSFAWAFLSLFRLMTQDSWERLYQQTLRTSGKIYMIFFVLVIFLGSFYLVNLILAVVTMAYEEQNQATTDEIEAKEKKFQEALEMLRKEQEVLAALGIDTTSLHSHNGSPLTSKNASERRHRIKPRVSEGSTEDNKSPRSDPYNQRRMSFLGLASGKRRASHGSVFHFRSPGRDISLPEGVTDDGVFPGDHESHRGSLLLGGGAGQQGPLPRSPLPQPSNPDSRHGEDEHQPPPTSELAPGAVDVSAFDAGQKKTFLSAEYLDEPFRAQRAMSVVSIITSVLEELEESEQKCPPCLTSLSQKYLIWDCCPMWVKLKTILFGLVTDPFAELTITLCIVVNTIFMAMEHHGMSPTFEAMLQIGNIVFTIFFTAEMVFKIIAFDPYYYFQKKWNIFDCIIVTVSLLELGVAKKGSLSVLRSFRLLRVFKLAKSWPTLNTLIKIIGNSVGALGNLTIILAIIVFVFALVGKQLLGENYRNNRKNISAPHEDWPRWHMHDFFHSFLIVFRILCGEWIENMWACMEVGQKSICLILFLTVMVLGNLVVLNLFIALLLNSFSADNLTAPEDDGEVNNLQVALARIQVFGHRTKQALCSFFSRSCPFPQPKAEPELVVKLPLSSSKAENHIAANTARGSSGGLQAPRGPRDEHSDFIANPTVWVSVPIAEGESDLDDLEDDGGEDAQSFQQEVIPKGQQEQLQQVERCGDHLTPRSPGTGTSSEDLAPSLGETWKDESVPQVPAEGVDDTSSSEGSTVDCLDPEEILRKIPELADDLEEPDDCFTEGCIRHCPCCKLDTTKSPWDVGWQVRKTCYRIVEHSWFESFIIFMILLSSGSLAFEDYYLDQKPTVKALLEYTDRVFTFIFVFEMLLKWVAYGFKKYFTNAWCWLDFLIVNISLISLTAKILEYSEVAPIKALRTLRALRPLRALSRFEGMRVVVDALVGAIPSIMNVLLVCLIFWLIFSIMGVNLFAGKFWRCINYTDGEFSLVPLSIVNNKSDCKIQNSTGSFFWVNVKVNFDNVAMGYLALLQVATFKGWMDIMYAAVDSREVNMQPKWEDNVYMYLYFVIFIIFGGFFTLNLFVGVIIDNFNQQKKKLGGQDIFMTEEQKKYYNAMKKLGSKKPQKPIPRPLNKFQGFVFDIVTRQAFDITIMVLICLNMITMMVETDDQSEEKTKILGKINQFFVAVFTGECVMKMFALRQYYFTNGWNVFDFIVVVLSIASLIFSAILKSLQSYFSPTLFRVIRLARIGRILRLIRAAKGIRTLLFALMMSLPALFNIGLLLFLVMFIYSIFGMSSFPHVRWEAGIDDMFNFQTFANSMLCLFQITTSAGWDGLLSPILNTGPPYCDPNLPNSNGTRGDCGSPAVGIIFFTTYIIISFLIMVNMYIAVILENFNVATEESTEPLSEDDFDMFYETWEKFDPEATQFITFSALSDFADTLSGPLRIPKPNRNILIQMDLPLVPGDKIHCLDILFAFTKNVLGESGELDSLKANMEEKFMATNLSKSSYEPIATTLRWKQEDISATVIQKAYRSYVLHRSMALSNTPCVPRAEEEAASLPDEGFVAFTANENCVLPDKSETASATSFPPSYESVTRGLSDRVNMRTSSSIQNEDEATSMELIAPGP

Q: How did the IC50 turn out when `COc1ccc(C(NC(=O)[C@@H]2CNC(=O)O2)c2ccc(Cl)cc2)cn1` (single isomer, unassigned) [Example 22A, (S)-N-((R or S)-(4-chlorophenyl)(6-methoxypyridin-3-yl)methyl)-2-oxooxazolidine-5-carboxamide] was run?
A: 130 nM

Q: Which IC50 does the source give for `O=C1NC[C@@H](C(=O)NC(c2ccc(Cl)cc2)c2ccc(Cl)cc2OC(F)(F)F)O1` (single isomer, unassigned) [Example 47B, (S)-N-((R or S)-(4-chloro-2-(trifluoromethoxy)phenyl)(4-chlorophenyl)-methyl)-2-oxooxazolidine-5-carboxamide] here?
A: 17 nM

Q: How did the IC50 turn out when `O=C1NC[C@@H](C(=O)NC(c2ccc(Cl)cc2)c2ccc(Cl)c(C(F)(F)F)c2)O1` (single isomer, unassigned) [Example 35B, (S)-N-((R or S)-(4-chloro-3-(trifluoromethyl)phenyl)(4-chlorophenyl)methyl)-2-oxooxazolidine-5-carboxamide] was run?
A: 3.8 nM

Q: `O=C1NC[C@@H](C(=O)NC(c2ccc(Cl)cc2)c2ccc(F)c(Cl)c2)O1` (single isomer, unassigned) [Example 19A, (S)—N—((R or S)-(3-chloro-4-fluorophenyl)(4-chlorophenyl)methyl)-2-oxooxazolidine-5-carboxamide] was tested. Which IC50 did it give?
A: 0.9 nM

Q: `O=C1NC[C@@H](C(=O)NC(c2ccc(Cl)cc2)c2ccc(OCC(F)(F)F)nn2)O1` (single isomer, unassigned) [Example 73B, (S)-N-((R or S)-(4-chlorophenyl)(6-(2,2,2-trifluoroethoxy)pyridazin-3-yl)methyl)-2-oxooxazolidine-5-carboxamide] was tested. Which IC50 did it give?
A: 80 nM

Q: With `O=C1NC[C@@H](C(=O)NC(c2ccc(F)c(Cl)c2)c2cccc(C(F)(F)F)n2)O1` (single isomer, unassigned) [Example 49A, (S)-N-((R or S)-(3-chloro-4-fluorophenyl)(6-(trifluoromethyl)pyridin-2-yl)methyl)-2-oxooxazolidine-5-carboxamide] as the compound, how does the IC50 read?
A: 8.8 nM

Q: Which IC50 does the source give for `COc1ncccc1C(NC(=O)[C@@H]1CNC(=O)O1)c1ccc(F)c(Cl)c1` (single isomer, unassigned) [Example 58B, (S)-N-((R or S)-(3-chloro-4-fluorophenyl)(2-methoxypyridin-3-yl)methyl)-2-oxooxazolidine-5-carboxamide] here?
A: 24 nM

Q: `O=C1NC[C@@H](C(=O)NC(c2ccccc2)C2C3CC4CC(C3)CC2C4)O1` (stereo partly drawn) [Example 21, (5S)-N-((adamantan-2-yl)(phenyl)methyl)-2-oxooxazolidine-5-carboxamide] was tested. Which IC50 did it give?
A: 293 nM

Q: How did the IC50 turn out when `O=C1NC[C@@H](C(=O)NC(c2ccc(F)c(Cl)c2F)[C@@H]2CC[C@@H](C(F)(F)F)CO2)O1` (single isomer, unassigned) [Example 9B] was run?
A: 9.5 nM

Q: How did the IC50 turn out when `O=C1NC[C@@H](C(=O)NC(c2ccc(OC(F)(F)F)c(Cl)c2)c2cnn(C(F)(F)F)c2)O1` (single isomer, unassigned) [Example 53B, (S)-N-((R or S)-(3-chloro-4-(trifluoro-methoxy)phenyl)(1-(trifluoromethyl)-1H-pyrazol-4-yl)methyl)-2-oxooxazolidine-5-carboxamide] was run?
A: 1.2 nM
